Test results: patent publication US20220306659A1, “COMPOUND INHIBITING AND INDUCING DEGRADATION OF EGFR AND ALK” (BEIJING TIDE PHARMACEUTICAL CO., LTD., priority 2019, published 2022)

Assays:
Ba/F3(EML4-ALK) cells = target: T1, Ba/F3(EML4-ALK) cells (Homo sapiens, UniProt Q9UM73); test: Assay of activity on Ba/F3(EML4-ALK) cells (CTG, 72 h); assay type: cell-based; details: read-out: IC50 (nM) Ba/F3(EML4-ALK)
T1 construct: fused on or other part: Q9HC35 (Echinoderm microtubule-associated protein-like 4)
Description: Assay of activity on Ba/F3(EML4-ALK) cells
(1) Ba/F3(EML4-ALK) cells were cultured according to the requirements of ATCC, incubated in an incubator at 37° C. and 5% CO2, and analyzed by index; cells with viability of >90% can be used in the assay, and cells were seeded in a 384-well plate (PerkinElmer, 6007680) with 700 cells/well, 30 μl/well.
(2) A compound stock solution was prepared, and diluted 3× to obtain a compound dilution; 30 nL of the serial dilution was added to a 384-well plate (784075, Greiner) by Echo 550, and cells were incubated in an incubator at 37° C. and 5% CO2 for 72 h.
(3) 30 μL of CTG was added to each well, and the 384-well plate was shaken on a Plate shaker (QILINBEIER, QB-9002); the 384-well plate was incubated in the dark at 37° C. and 5% CO2 for 30 min, and the chemiluminescence value was read by Envision (PerkinElmer, EnVision 2104).
The percent inhibition rate (% inhibition) was calculated by the formula below
LUMcmpd: Luminescence value of assay compound.
LUMpositive: Average LUM value of positive drug at a concentration of 10 μM.
LUM^vehicle: Average LUM value of negative control group without drug treatment.
(§1) The nonlinear regression curve (dose response-variable slope) between the value of inhibition rate (%) and the logarithm of compound concentration was fitted with graphpad prism 8.0, the effect dose curve of compound was drawn, and the IC50 value was calculated.
Y=Bottom+(Top−Bottom)/(1+10^((LogIC50−X)*HillSlope))
X-axis: logarithm of compound concentration; Y axis: inhibition rate (% inhibition).

[1] = target: Ba/F3(EGFR^Del19/T790M/C797S) cells (Homo sapiens, UniProt P00533, DEL746-750/T790M/C797S, cells depend on it); test: Assay of activity on Ba/F3 cells (CTG, 72 h); assay type: cell-based; details: read-out: IC50 (nM) Ba/F3 (EGFR^Del19/T790M/C797S)
Outline: (§2)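 Ba/F3 cells dependent on each EGFR triple mutant were exposed to 3-fold compound dilutions for 72 h at 37° C, 5% CO2, with CellTiter-Glo luminescence as the read-out.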

ALK = ALK (Homo sapiens, UniProt Q9UM73); test: Assay of activity on ALK kinase; assay type: biochemical; details: kinase inhibition
Description: (§3) Assay of activity on ALK kinase
(§4) (1) A compound stock solution was prepared;
(§5) (2) The compound stock solution was diluted 3× to obtain a compound dilution;
(§6) (5) 5 μl of the 2× kinase working solution was added to the reaction plate, centrifuged at 1,000 rpm for 1 min, and incubated at 25° C. for 15 min;
(§7) (7) 5 μl of the TK-substrate-biotin and ATP (the mixture prepared in step (6)) was added to initiate the reaction;
(§8) (8) The mixture was centrifuged at 1,000 g for 30 s; the plate was sealed, and incubated at 25° C. for 60 min;
(§9) (11) The mixture was centrifuged at 1,000 g for 1 min, and incubated at 25° C. for 60 min;
(§10) Formula of inhibition rate (%): […]
as §1
(§11) Y=Bottom+(Top−Bottom)/(1+10^((LogIC50−X)*Hill Slope))
(§12) X-axis: logarithm of compound concentration; Y axis: inhibition rate ([…])

ALK^G1202R = ALK^G1202R (Homo sapiens, UniProt Q9UM73, G1202R); test: Assay of activity on ALK kinase; assay type: biochemical; details: kinase inhibition
Description: as §3, §4, §5, §6, §7, §8, §9, §10, §1, §11, §12

[2] = target: Ba/F3(EGFR^L858R/T790M/C797S) cells (Homo sapiens, UniProt P00533, T790M/C797S/L858R, cells depend on it); test: Assay of activity on Ba/F3 cells (CTG, 72 h); assay type: cell-based; details: read-out: IC50 (nM) Ba/F3 (EGFR^L858R/T790M/C797S)
Outline: as §2

EGFR^L858R/T790M/C797S = EGFR^L858R/T790M/C797S (Homo sapiens, UniProt P00533, C797S/L858R/T790M); test: EGFR inhibitory activity assay (TK-substrate-biotin/ATP, 665/615 ratio); assay type: biochemical; details: kinase inhibition
Description: (§13) EGFR Inhibitory Activity Assay
(1) A compound stock solution was prepared and diluted 3× to obtain a compound dilution; 10 nL of the compound dilution was transferred to a 384-well plate (784075, Greiner) by Echo 550;
(§14) (2) The plate was sealed, and centrifuged at 1,000 g for 1 min;
(§15) (4) 5 μl of the 2×EGFR protein working solution was added to the 384-well plate from step (2), centrifuged at 1,000 g for 30 s, and allowed to stand at room temperature (mixed thoroughly) for 10 min;
(§16) (6) 5 µL of the TK-substrate-biotin and ATP (the mixture prepared in step (5)) was added to the 384-well plate from step (4) to initiate the reaction;
(§17) (7) The mixture was centrifuged at 1,000 g for 30 s; the plate was sealed, and allowed to stand (and reacted) at room temperature for 40 min;
(8) 4×Sa-XL 665 and TK-antibody-Cryptate were prepared with detection buffer;
(9) 5 µL of the Sa-XL 665 and 5 µL of the TK-antibody-Cryptate were added successively to the 384-well plate from step (7);
(§18) (10) The mixture was centrifuged at 1,000 g for 30 s, and allowed to stand (reacted) at room temperature for 1 h;
(11) The fluorescence values were read at 615 nm and 665 nm by enzyme labeling instrument (PerkinElmer, 74785).
The ratio (665/615) of each well was calculated.
as §10
Ratiocmpd: Ratio (665/615) value of assay compound.
Ratiopositive: Average ratio (665/615) value of positive control.
Ratiovehicle: Average ratio (665/615) value of negative control.
as §1

EGFR^Del19/T790M/C797S = EGFR^Del19/T790M/C797S (Homo sapiens, UniProt P00533, C797S/DEL746-750/T790M); test: as above; assay type: biochemical; details: kinase inhibition
Description: as §13, §14, §15, §16, §17, §18, §10, §1

Ba/F3(EGFR^L858R/T790M/C797S) cells, sequence (P00533 whole entry T790M/C797S/L858R): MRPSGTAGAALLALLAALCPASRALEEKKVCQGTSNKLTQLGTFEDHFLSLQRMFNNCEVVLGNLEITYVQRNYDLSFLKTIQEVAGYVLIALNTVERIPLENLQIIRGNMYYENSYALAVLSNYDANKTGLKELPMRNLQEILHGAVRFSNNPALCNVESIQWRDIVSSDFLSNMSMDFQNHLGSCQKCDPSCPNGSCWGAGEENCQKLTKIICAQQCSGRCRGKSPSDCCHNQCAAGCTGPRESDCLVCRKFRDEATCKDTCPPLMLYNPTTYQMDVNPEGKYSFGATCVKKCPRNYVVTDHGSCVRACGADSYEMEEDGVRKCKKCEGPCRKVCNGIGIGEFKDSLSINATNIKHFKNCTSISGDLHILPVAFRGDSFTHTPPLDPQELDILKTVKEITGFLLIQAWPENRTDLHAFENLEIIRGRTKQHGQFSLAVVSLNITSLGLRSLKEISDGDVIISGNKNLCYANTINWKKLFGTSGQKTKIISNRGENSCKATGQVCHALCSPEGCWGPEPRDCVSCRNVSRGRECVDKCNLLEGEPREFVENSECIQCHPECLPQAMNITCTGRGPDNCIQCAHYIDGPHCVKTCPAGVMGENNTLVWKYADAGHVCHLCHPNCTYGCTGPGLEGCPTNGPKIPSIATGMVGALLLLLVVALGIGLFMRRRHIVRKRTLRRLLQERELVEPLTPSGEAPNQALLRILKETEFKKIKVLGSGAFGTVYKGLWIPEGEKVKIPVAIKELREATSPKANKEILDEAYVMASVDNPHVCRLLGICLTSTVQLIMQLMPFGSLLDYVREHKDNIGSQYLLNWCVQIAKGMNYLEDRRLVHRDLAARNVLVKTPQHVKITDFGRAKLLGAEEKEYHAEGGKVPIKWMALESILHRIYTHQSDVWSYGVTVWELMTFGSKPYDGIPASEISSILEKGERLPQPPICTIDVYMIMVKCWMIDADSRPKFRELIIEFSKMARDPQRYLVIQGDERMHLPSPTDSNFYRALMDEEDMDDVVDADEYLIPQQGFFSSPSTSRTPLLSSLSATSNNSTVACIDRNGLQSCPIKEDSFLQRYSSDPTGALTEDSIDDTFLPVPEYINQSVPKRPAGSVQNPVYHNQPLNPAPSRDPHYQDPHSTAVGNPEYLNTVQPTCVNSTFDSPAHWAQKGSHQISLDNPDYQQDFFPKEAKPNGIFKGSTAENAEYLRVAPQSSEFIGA
ALK, sequence (Q9UM73 19-1620): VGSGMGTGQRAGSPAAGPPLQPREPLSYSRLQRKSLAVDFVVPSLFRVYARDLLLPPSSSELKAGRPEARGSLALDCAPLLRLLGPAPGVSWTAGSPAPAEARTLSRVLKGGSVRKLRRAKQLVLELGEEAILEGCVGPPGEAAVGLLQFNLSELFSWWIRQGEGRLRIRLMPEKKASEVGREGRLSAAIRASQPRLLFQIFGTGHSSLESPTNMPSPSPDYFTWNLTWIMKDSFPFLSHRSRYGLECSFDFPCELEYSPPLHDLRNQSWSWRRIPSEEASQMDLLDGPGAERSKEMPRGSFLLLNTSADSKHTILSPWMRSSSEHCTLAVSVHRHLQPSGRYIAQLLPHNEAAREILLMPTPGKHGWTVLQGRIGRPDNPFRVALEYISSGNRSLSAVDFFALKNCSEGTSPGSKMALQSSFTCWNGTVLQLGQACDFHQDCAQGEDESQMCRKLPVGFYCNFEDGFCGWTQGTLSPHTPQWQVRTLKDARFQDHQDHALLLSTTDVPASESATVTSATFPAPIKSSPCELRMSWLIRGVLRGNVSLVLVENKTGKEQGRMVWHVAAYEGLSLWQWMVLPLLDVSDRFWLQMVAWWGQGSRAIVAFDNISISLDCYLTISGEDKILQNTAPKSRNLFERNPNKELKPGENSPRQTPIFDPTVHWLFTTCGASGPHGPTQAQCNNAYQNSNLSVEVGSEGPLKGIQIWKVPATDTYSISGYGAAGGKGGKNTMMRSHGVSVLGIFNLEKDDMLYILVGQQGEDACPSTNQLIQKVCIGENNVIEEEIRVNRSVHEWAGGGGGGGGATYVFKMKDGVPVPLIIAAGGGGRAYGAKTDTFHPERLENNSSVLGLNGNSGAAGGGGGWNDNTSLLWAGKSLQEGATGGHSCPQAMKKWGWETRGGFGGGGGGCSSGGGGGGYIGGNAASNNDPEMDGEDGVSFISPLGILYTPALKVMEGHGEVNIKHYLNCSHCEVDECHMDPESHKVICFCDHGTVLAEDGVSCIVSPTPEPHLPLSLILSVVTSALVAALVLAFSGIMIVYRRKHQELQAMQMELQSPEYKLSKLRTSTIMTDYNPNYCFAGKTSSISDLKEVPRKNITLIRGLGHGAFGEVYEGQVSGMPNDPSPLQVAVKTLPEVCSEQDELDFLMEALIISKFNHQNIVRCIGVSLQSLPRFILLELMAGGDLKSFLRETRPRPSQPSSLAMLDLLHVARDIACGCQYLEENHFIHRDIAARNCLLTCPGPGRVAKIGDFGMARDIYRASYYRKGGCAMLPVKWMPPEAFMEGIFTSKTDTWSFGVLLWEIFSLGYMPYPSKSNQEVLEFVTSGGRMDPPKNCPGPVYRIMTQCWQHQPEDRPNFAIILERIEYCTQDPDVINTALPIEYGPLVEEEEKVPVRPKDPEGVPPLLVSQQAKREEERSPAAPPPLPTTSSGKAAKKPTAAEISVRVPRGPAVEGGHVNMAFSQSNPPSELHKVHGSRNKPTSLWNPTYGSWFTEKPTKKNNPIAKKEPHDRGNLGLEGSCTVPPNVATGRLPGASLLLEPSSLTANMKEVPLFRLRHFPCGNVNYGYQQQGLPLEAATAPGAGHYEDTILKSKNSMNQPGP
T1 sequence (Q9UM73 whole entry, change not shown, the tested form may be a part): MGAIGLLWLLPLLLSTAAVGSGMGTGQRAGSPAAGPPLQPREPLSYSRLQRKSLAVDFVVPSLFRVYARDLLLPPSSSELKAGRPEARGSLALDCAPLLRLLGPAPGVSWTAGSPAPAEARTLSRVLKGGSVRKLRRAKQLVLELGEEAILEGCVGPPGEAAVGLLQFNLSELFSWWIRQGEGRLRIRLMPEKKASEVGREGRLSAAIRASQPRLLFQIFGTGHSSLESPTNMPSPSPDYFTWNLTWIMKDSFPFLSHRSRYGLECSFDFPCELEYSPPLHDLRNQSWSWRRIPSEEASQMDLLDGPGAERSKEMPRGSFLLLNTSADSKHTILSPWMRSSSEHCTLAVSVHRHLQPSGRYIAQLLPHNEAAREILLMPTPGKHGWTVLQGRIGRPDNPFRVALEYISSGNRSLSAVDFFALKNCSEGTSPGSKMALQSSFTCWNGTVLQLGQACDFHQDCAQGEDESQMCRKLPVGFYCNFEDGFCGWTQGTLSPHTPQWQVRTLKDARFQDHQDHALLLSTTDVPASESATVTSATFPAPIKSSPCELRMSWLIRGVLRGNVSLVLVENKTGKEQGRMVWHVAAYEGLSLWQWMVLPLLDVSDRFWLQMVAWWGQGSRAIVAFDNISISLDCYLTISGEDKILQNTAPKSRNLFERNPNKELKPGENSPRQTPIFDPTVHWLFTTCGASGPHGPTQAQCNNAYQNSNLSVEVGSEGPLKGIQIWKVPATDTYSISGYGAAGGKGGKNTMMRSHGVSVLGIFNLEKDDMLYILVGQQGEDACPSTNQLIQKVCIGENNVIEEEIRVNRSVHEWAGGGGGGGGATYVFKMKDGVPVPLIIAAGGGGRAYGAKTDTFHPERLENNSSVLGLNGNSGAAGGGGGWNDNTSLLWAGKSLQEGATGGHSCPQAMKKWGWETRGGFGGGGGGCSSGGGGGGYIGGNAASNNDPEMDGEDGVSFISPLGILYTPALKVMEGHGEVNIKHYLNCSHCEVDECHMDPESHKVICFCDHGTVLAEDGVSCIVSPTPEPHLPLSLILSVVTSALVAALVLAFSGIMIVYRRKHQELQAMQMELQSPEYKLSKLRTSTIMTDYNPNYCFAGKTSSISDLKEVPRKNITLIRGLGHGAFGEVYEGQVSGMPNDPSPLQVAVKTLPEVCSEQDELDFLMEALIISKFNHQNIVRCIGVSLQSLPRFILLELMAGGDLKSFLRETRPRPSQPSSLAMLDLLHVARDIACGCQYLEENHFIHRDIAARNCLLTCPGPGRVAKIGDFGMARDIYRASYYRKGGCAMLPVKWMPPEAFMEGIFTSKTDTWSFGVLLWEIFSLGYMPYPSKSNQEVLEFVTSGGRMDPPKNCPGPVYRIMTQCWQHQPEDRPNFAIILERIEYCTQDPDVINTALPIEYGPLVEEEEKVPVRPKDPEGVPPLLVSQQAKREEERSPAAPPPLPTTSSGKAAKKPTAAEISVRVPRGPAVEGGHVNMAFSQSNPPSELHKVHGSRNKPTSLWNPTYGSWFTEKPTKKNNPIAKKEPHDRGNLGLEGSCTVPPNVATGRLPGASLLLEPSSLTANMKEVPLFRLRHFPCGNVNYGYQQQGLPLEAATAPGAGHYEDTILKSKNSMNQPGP
ALK^G1202R, sequence (Q9UM73 19-1620 G1202R): as the sequence (Q9UM73 19-1620) above, with G1184R counted along it
EGFR^Del19/T790M/C797S, sequence (P00533 with tags, fused parts or gaps DEL746-750/T790M/C797S): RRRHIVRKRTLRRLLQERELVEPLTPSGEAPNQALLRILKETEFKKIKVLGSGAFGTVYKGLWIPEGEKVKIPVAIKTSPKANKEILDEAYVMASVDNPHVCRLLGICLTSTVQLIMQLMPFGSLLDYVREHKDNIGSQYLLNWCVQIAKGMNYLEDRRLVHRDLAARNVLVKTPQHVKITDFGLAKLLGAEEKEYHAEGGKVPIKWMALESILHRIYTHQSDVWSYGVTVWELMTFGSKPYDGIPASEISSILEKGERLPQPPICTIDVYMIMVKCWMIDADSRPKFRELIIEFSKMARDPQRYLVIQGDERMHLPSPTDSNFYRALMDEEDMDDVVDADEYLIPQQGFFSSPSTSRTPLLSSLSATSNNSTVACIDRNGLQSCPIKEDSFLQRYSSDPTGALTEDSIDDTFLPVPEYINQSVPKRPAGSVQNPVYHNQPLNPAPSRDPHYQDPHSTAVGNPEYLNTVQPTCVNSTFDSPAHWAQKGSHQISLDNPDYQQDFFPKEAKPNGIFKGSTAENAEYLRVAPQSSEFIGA

Row | SMILES | GI50 (Ba/F3(EML4-ALK) cells) [nM] | GI50 [1] [nM] | IC50 (ALK) [nM] | IC50 (ALK^G1202R) [nM] | GI50 [2] [nM] | IC50 (EGFR^L858R/T790M/C797S) [nM] | IC50 (EGFR^Del19/T790M/C797S) [nM]
1 | COc1cc(N2CCC(N3CCN(CCCCCCCCCNc4cccc5c4CN(C4CCC(=O)NC4=O)C5=O)CC3)CC2)ccc1Nc1ncc(Cl)c(Nc2ccccc2P(C)(C)=O)n1 (centres unmarked) [Compound A13, 3-(4-((9-(4-(1-(4-((5-chloro-4-((2-(dimethylphosphoryl)phenyl)amino)pyrimidin-2-yl)amino)-3-methoxyphenyl)piperidin-4-yl)piperazin-1-yl)nonyl)amino)-1-oxoisoindolin-2-yl)piperidine-2,6-dione] | 1 to 100 |  | 1 to 100 | > 300 | 101 to 200 | 101 to 200 | 
2 | COc1cc(N2CCC(N3CCN(CCOCCOCCOCCNC(=O)COc4cccc5c4C(=O)N(C4CCC(=O)NC4=O)C5=O)CC3)CC2)ccc1Nc1ncc(Cl)c(Nc2ccccc2P(C)(C)=O)n1 (centres unmarked) [Compound A3, N-(2-(2-(2-(2-(4-(1-(4-((5-chloro-4-((2-(dimethylphosphoryl)phenyl)amino)pyrimidin-2-yl)amino)-3-methoxyphenyl)piperidin-4-yl)piperazin-1-yl)ethoxy)ethoxy)ethoxy)ethyl)-2-((2-(2,6-dioxopiperidin-3-yl)-1,3-dioxoisoindolin-4-yl)oxy)acetamide] |  |  |  |  |  | 1 to 100 | 1 to 100
3 | COc1cc(N2CCC(N3CCN(CC4(COc5cccc6c5C(=O)N(C5CCC(=O)NC5=O)C6=O)CC4)CC3)CC2)ccc1Nc1ncc(Cl)c(Nc2ccccc2P(C)(C)=O)n1 (centres unmarked) [Compound C106, 4-((1-((4-(1-(4-((5-chloro-4-((2-(dimethylphosphoryl)phenyl)amino)pyrimidin-2-yl)amino)-3-methoxyphenyl)piperidin-4-yl)piperazin-1-yl)methyl)cyclopropyl)methoxy)-2-(2,6-dioxopiperidin-3-yl)isoindoline-1,3-dione] |  |  | 1 to 100 | 201 to 300 | > 300 | 1 to 100 | 
4 | COc1cc(N2CCC(N3CCN(CCCCCCCNc4cccc5c4CN(C4CCC(=O)NC4=O)C5=O)CC3)CC2)ccc1Nc1ncc(Cl)c(Nc2ccccc2P(C)(C)=O)n1 (centres unmarked) [Compound A12, 3-(4-((7-(4-(1-(4-((5-chloro-4-((2-(dimethylphosphoryl)phenyl)amino)pyrimidin-2-yl)amino)-3-methoxyphenyl)piperidin-4-yl)piperazin-1-yl)heptyl)amino)-1-oxoisoindolin-2-yl)piperidine-2,6-dione] | 1 to 100 |  | 1 to 100 | 101 to 200 | 1 to 100 | 1 to 100 | 
5 | COc1cc(N2CCC(N3CCN(CC(=O)Nc4cccc5c4CN(C4CCC(=O)NC4=O)C5=O)CC3)CC2)ccc1Nc1ncc(Cl)c(Nc2ccccc2P(C)(C)=O)n1 (centres unmarked) [Compound A17, 2-(4-(1-(4-((5-chloro-4-((2-(dimethylphosphoryl)phenyl)amino)pyrimidin-2-yl)amino)-3-methoxyphenyl)piperidin-4-yl)piperazin-1-yl)-N-(2-(2,6-dioxopiperidin-3-yl)-1-oxoisoindolin-4-yl)acetamide] |  |  |  |  |  | 1 to 100 | 1 to 100

Second part, led by results:

Row | GI50 (Ba/F3(EML4-ALK) cells) [nM] | GI50 [1] [nM] | IC50 (ALK) [nM] | IC50 (ALK^G1202R) [nM] | GI50 [2] [nM] | IC50 (EGFR^L858R/T790M/C797S) [nM] | SMILES | IC50 (EGFR^Del19/T790M/C797S) [nM]
6 | 1 to 100 | 1 to 100 | 1 to 100 | 201 to 300 |  |  | COc1cc(N2CCC(N3CCN(CCOCC#Cc4ccc5c(c4)CN(C4CCC(=O)NC4=O)C5=O)CC3)CC2)ccc1Nc1ncc(Cl)c(Nc2ccccc2P(C)(C)=O)n1 (centres unmarked) [Compound C193, 3-(5-(3-(2-(4-(1-(4-((5-chloro-4-((2-(dimethylphosphoryl)phenyl)amino)pyrimidin-2-yl)amino)-3-methoxyphenyl)piperidin-4-yl)piperazin-1-yl)ethoxy)prop-1-yn-1-yl)-1-oxoisoindolin-2-yl)piperidine-2,6-dione] | 
7 | 1 to 100 | 1 to 100 | 1 to 100 | 201 to 300 |  |  | COc1cc(N2CCC(N3CCN(CCCCCC#Cc4ccc5c(c4)CN(C4CCC(=O)NC4=O)C5=O)CC3)CC2)ccc1Nc1ncc(Cl)c(Nc2ccccc2P(C)(C)=O)n1 (centres unmarked) [Compound C190, 3-(5-(7-(4-(1-(4-((5-chloro-4-((2-(dimethylphosphoryl)phenyl)amino)pyrimidin-2-yl)amino)-3-methoxyphenyl)piperidin-4-yl)piperazin-1-yl)hept-1-yn-1-yl)-1-oxoisoindolin-2-yl)piperidine-2,6-dione] | 
8 | 1 to 100 | 1 to 100 | 1 to 100 | > 300 |  |  | COc1cc(N2CCC(N3CCN(CCCCCCC#Cc4ccc5c(c4)CN(C4CCC(=O)NC4=O)C5=O)CC3)CC2)ccc1Nc1ncc(Cl)c(Nc2ccccc2P(C)(C)=O)n1 (centres unmarked) [Compound C194, 3-(5-(8-(4-(1-(4-((5-chloro-4-((2-(dimethylphosphoryl)phenyl)amino)pyrimidin-2-yl)amino)-3-methoxyphenyl)piperidin-4-yl)piperazin-1-yl)oct-1-yn-1-yl)-1-oxoisoindolin-2-yl)piperidine-2,6-dione] | 
9 |  |  | 1 to 100 | 101 to 200 | 101 to 200 | 1 to 100 | COc1cc(N2CCC(N3CCN(CC(=O)OCC4(COc5cccc6c5C(=O)N(C5CCC(=O)NC5=O)C6=O)CC4)CC3)CC2)ccc1Nc1ncc(Cl)c(Nc2ccccc2P(C)(C)=O)n1 (centres unmarked) [Compound C107, 2-(4-(1-(4-((5-chloro-4-((2-(dimethylphosphoryl)phenyl)amino)pyrimidin-2-yl)amino)-3-methoxyphenyl)piperidin-4-yl)piperazin-1-yl)acetate (1-(((2-(2,6-dioxopiperidin-3-yl)-1,3-dioxoisoindolin-4-yl)oxy)methyl)cyclopropyl)methyl ester] | 
10 |  |  | 1 to 100 | 1 to 100 | > 300 | 1 to 100 | COc1cc(N2CCC(N3CCN(CC(=O)N4CCC[C@H]4COc4cccc5c4C(=O)N(C4CCC(=O)NC4=O)C5=O)CC3)CC2)ccc1Nc1ncc(Cl)c(Nc2ccccc2P(C)(C)=O)n1 (stereo partly drawn) [Compound C109, 4-(((S)-1-(2-(4-(1-(4-((5-chloro-4-((2-(dimethylphosphoryl)phenyl)amino)pyrimidin-2-yl)amino)-3-methoxyphenyl)piperidin-4-yl)piperazin-1-yl)acetyl)pyrrolidin-2-yl)methoxy)-2-(2,6-dioxopiperidin-3-yl)isoindoline-1,3-dione] | 
